Test results: patent publication US9469650B2, “Melampomagnolide B derivatives” (BOARD OF TRUSTEES OF THE UNIVERSITY OF ARKANSAS, priority 2013, dated 2016)
Read-outs that look alike come from different tables or passages of the source.

What was measured:
NCI-H522 = assay: panel of 60 human tumor cell lines, growth inhibition (Non-Small Cell Lung Cancer); conditions: NCI-H522
CCRF-CEM = assay: panel of 60 human tumor cell lines, growth inhibition (Leukemia)
SF-539 = assay: panel of 60 human tumor cell lines, growth inhibition (CNS Cancer); conditions: SF-539
HCT-15 = assay: panel of 60 human tumor cell lines, growth inhibition (Colon Cancer); conditions: HCT-15
HOP-92 = assay: panel of 60 human tumor cell lines, growth inhibition (Non-Small Cell Lung Cancer); conditions: HOP-92
HT29 = assay: panel of 60 human tumor cell lines, growth inhibition (Colon Cancer); conditions: HT29
M14 = assay: panel of 60 human tumor cell lines, growth inhibition (Melanoma); conditions: M14
MDA-MB-435 = assay: as above; conditions: MDA-MB-435

C=C1C(=O)O[C@H]2[C@H]1CC/C(COC(=O)CCC(=O)N1CCC(C)CC1)=C\CC[C@@]1(C)O[C@@H]21 [JVM 2-70]
Percent Growth (NCI-H522; Log10 Concentration −4.0): −71% | Percent Growth (NCI-H522; Log10 Concentration −5.0): −87% | Percent Growth (NCI-H522; Log10 Concentration −6.0): 80% | Percent Growth (NCI-H522; Log10 Concentration −7.0): 96% | Percent Growth (NCI-H522; Log10 Concentration −8.0): 93% | GI50 (NCI-H522; NCI five dose): 1.5 µM | TGI (NCI-H522; NCI five dose): 3.00E−6 | Percent Growth (CCRF-CEM; Log10 Concentration −4.0): −56% | Percent Growth (CCRF-CEM; Log10 Concentration −5.0): −32% | Percent Growth (CCRF-CEM; Log10 Concentration −6.0): 64% | Percent Growth (CCRF-CEM; Log10 Concentration −7.0): 92% | Percent Growth (CCRF-CEM; Log10 Concentration −8.0): 98% | GI50 (CCRF-CEM; NCI five dose): 1.4 µM | TGI (CCRF-CEM; NCI five dose): 4.68E−6 | Percent Growth (SF-539; Log10 Concentration −4.0): −90% | Percent Growth (SF-539; Log10 Concentration −5.0): −20% | Percent Growth (SF-539; Log10 Concentration −6.0): 92% | Percent Growth (SF-539; Log10 Concentration −7.0): 97% | Percent Growth (SF-539; Log10 Concentration −8.0): 93% | GI50 (SF-539; NCI five dose): 2.35 µM | TGI (SF-539; NCI five dose): 6.58E−6 | CC50 (SF-539; read-out: LC50, NCI five dose): 26.5 µM | Percent Growth (HL-60(TB); Log10 Concentration −4.0): −59% | Percent Growth (HL-60(TB); Log10 Concentration −5.0): −12% | Percent Growth (HL-60(TB); Log10 Concentration −6.0): 112% | Percent Growth (HL-60(TB); Log10 Concentration −7.0): 111% | Percent Growth (HL-60(TB); Log10 Concentration −8.0): 110% | GI50 (HL-60(TB); NCI five dose): 3.16 µM | TGI (HL-60(TB); NCI five dose): 7.96E−6 | CC50 (HL-60(TB); read-out: LC50, NCI five dose): 63.1 µM | Percent Growth (HCT-15; Log10 Concentration −4.0): −70% | Percent Growth (HCT-15; Log10 Concentration −5.0): −29% | Percent Growth (HCT-15; Log10 Concentration −6.0): 74% | Percent Growth (HCT-15; Log10 Concentration −7.0): 91% | Percent Growth (HCT-15; Log10 Concentration −8.0): 90% | GI50 (HCT-15; NCI five dose): 1.7 µM | TGI (HCT-15; NCI five dose): 5.22E−6 | Percent Growth (HOP-92; Log10 Concentration −4.0): −91% | Percent Growth (HOP-92; Log10 Concentration −5.0): 3% | Percent Growth (HOP-92; Log10 Concentration −6.0): 71% | Percent Growth (HOP-92; Log10 Concentration −7.0): 83% | Percent Growth (HOP-92; Log10 Concentration −8.0): 87% | GI50 (HOP-92; NCI five dose): 2.05 µM | TGI (HOP-92; NCI five dose): 1.07E−5 | Percent Growth (HT29; Log10 Concentration −4.0): −87% | Percent Growth (HT29; Log10 Concentration −5.0): 19% | Percent Growth (HT29; Log10 Concentration −6.0): 103% | Percent Growth (HT29; Log10 Concentration −7.0): 106% | Percent Growth (HT29; Log10 Concentration −8.0): 99% | GI50 (HT29; NCI five dose): 4.28 µM | TGI (HT29; NCI five dose): 1.51E−5 | Percent Growth (M14; Log10 Concentration −4.0): −81% | Percent Growth (M14; Log10 Concentration −5.0): 21% | Percent Growth (M14; Log10 Concentration −6.0): 84% | Percent Growth (M14; Log10 Concentration −7.0): 94% | Percent Growth (M14; Log10 Concentration −8.0): 91% | GI50 (M14; NCI five dose): 3.44 µM | TGI (M14; NCI five dose): 1.60E−5 | Percent Growth (MDA-MB-435; Log10 Concentration −4.0): −72% | Percent Growth (MDA-MB-435; Log10 Concentration −5.0): 32% | Percent Growth (MDA-MB-435; Log10 Concentration −6.0): 90% | Percent Growth (MDA-MB-435; Log10 Concentration −7.0): 95% | Percent Growth (MDA-MB-435; Log10 Concentration −8.0): 89% | GI50 (MDA-MB-435; NCI five dose): 4.84 µM
